Reference: patent publication US11365192B2, “Pyridine compound substituted with azole” (TAISHO PHARMACEUTICAL CO., LTD., priority 2017, dated 2022)

Experiments:
human CYP4A11 = human CYP4A11 (Homo sapiens (Human), UniProt Q02928); experiment: Inhibition test against 20-HETE producing enzyme CYP4A11 (luciferine derivative, luminescence); format: biochemical; conditions: human CYP4A11, luciferine derivative, luminescence
In short: (§1)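 IC50 derived from luminescence after 60 min at room temperature with membrane fractions of E. coli expressing each human CYP (100 μg/mL protein). For CYP4A11, 60 μM luciferin derivative in 100 mM Tris-HCl pH 7.5 with NADPH-regenerating system; for CYP4F2, 2.5 μM substrate, 1 mM NADPH, 50 mM KPO4 pH 7.4.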

human CYP4F2 = human CYP4F2 (Homo sapiens (Human), UniProt P78329); experiment: Inhibition test against 20-HETE producing enzyme CYP4F2 (luciferine derivative, luminescence); format: biochemical; conditions: human CYP4F2, luciferine derivative, luminescence
Sequence of human CYP4F2 (P78329 5-520): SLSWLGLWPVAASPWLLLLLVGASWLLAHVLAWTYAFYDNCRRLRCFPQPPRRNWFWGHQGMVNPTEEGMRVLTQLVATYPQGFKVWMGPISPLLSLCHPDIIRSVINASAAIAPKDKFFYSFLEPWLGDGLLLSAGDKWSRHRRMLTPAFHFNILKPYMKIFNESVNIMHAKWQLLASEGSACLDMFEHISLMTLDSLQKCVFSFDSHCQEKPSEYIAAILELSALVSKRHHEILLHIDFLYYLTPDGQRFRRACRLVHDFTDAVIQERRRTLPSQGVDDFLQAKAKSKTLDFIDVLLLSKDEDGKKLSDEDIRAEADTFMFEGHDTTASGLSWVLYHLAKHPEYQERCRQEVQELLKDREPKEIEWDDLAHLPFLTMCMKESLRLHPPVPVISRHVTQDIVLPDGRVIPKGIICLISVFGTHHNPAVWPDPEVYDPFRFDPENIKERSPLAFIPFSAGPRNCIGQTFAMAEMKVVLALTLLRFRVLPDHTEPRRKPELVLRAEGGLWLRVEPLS
In short: as §1

Sequence of human CYP4A11 (Q02928 5-519): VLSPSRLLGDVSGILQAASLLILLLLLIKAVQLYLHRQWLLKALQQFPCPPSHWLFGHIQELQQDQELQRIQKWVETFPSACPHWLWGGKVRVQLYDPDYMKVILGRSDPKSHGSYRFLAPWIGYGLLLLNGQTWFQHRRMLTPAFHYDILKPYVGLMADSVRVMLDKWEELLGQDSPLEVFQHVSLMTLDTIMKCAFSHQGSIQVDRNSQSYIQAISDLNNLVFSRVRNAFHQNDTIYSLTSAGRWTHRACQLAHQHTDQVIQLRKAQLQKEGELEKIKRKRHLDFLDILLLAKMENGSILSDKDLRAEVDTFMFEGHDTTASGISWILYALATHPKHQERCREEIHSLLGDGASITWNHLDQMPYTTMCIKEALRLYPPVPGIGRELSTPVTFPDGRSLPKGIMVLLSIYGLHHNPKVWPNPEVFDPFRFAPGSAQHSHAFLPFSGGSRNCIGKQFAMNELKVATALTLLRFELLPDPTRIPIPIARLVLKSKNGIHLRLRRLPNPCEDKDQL

SMILES | IC50 (human CYP4A11) | IC50 (human CYP4F2)
O=C(O)C1CC1c1ccc(CCOc2ccc(-c3ccn[nH]3)nc2)cc1 (centres unmarked) [Example 70-9] | 210 nM | 200 nM
O=C(O)[C@H]1C[C@@H]1c1ccc(CCOc2ccc(-c3ccn[nH]3)nc2)cc1 [Example 70-10-2] | 450 nM | 340 nM
O=C(O)C1CC1c1ccc(COc2ccc(-c3ccn[nH]3)nc2)cc1F (centres unmarked) [Example 70-11, 2-[2-Fluoro-4-[[6-(1H-pyrazol-5-yl)pyridin-3-yl]oxymethyl]phenyl]cyclopropane-1-carboxylic Acid] | 43 nM | 330 nM
CCC(OCCCCCCCOc1ccc(-c2ccn[nH]2)nc1)C(=O)O (centres unmarked) [Example 71-1, 2-[7-[6-(1H-Pyrazol-5-yl)pyridin-3-yl]oxyheptoxy]butanoic Acid] | 110 nM | 140 nM
CC[C@@H](OCCCCCCCOc1ccc(-c2ccn[nH]2)nc1)C(=O)O [Example 71-2-1] | 170 nM | 300 nM
CC[C@H](OCCCCCCCOc1ccc(-c2ccn[nH]2)nc1)C(=O)O [Example 71-2-2] | 87 nM | 90 nM
O=C(O)COCCCCCCCOc1ccc(-c2ccn[nH]2)nc1 [Example 71-3] | 230 nM | 320 nM
CC(OCCCCCCCOc1ccc(-c2ccn[nH]2)nc1)C(=O)O (centres unmarked) [Example 71-4] | 270 nM | 200 nM
O=C(O)C1(OCCCCCCCOc2ccc(-c3ccn[nH]3)nc2)CC1 [Example 71-5] | 96 nM | 39 nM
O=C(O)C1CCc2cc(CCOc3ccc(-c4ccn[nH]4)nc3)ccc2O1 (centres unmarked) [Example 71-7, 6-[2-[6-(1H-Pyrazol-5-yl)pyridin-3-yl]oxyethyl]-3,4-dihydro-2H-chromene-2-carboxylic Acid] | 82 nM | 550 nM
O=C(O)[C@@H]1CCc2cc(CCOc3ccc(-c4ccn[nH]4)nc3)ccc2O1 [Example 71-8-1] | 1000 nM | 430 nM
O=C(O)[C@H]1CCc2cc(CCOc3ccc(-c4ccn[nH]4)nc3)ccc2O1 [Example 71-8-2] | 48 nM | 560 nM
O=C(O)C1COc2cc(CCOc3ccc(-c4ccn[nH]4)nc3)ccc2C1 (centres unmarked) [Example 71-9] | 310 nM | 870 nM
O=C(O)C1COc2ccc(CCOc3ccc(-c4ccn[nH]4)nc3)cc2C1 (centres unmarked) [Example 71-10] | 140 nM | 260 nM
O=C(O)C1CCc2c(COc3ccc(-c4ccn[nH]4)nc3)cccc2O1 (centres unmarked) [Example 71-11] | 22 nM | 29000 nM
O=C(O)C1COc2c(CCOc3ccc(-c4ccn[nH]4)nc3)cccc2C1 (centres unmarked) [Example 71-12] | 18 nM | 1300 nM

SMILES | IC50 (human CYP4A11) | IC50 (human CYP4F2)
O=C(O)c1ccc(F)c(CCCOc2ccc(-c3ccn[nH]3)nc2)c1 [Example 71-13] | 51 nM | 770 nM
O=C(O)c1cccc(CCCCCOc2ccc(-c3ccn[nH]3)nc2)n1 [Example 71-14] | 150 nM | 1300 nM
O=C(O)C1CC1c1ccc(COc2ccc(-c3ccn[nH]3)nc2)cc1 (centres unmarked) [Example 71-15] | 84 nM | 1200 nM
O=C(O)C1CC1c1ccc(CCOc2ccc(-c3ccn[nH]3)nc2)c(F)c1 (centres unmarked) [Example 71-16] | 190 nM | 91 nM
O=C(O)C1CC(c2cccc(CCOc3ccc(-c4ccn[nH]4)nc3)c2)C1 (centres unmarked) [Example 71-19] | 53 nM | 540 nM
O=C(O)C1CC(c2ccc(CCOc3ccc(-c4ccn[nH]4)nc3)cc2)C1 (centres unmarked) [Example 71-20] | 500 nM | 190 nM
O=C(O)C1CCc2ccc(CCOc3ccc(-c4ccn[nH]4)nc3)cc2O1 (centres unmarked) [Example 71-21, 7-[2-[6-(1H-Pyrazol-5-yl)pyridin-3-yl]oxyethyl]-3,4-dihydro-2H-chromene-2-carboxylic Acid] | 330 nM | 190 nM
O=C(O)[C@H]1CCc2ccc(CCOc3ccc(-c4ccn[nH]4)nc3)cc2O1 [Example 71-22-1] | 250 nM | 310 nM
O=C(O)[C@@H]1CCc2ccc(CCOc3ccc(-c4ccn[nH]4)nc3)cc2O1 [Example 71-22-2] | 1000 nM | 160 nM
O=C(O)C1COc2cc(COc3ccc(-c4ccn[nH]4)nc3)ccc2C1 (centres unmarked) [Example 71-23] | 50 nM | 550 nM
O=C(O)C1CC1c1ccc(COc2ccc(-c3ccn[nH]3)nc2)c(F)c1 (centres unmarked) [Example 71-24] | 72 nM | 2100 nM
CC(C)(Cc1ccc(COc2ccc(-c3ccn[nH]3)nc2)cc1)C(=O)O [Example 71-25] | 300 nM | 4800 nM
O=C(O)C1(Cc2cccc(COc3ccc(-c4ccn[nH]4)nc3)c2F)COC1 [Example 71-26] | 39 nM | 9700 nM
O=C(O)C1(Cc2cccc(CCOc3ccc(-c4ccn[nH]4)nc3)c2F)COC1 [Example 71-27] | 94 nM | 15000 nM
CC(C)(Cc1ccc(CCOc2ccc(-c3ccn[nH]3)nc2)cn1)C(=O)O [Example 71-28] | 1600 nM | 6200 nM
